Data taken from the supplement of paper PMC10307832.

Experiments:
Assay in all cases: relative viability (nuclei count vs DMSO), 5 days (fraction); higher = more cells survive
[1] = compound: C=CCNC1=C2C[C@@H](C)C[C@H](OC)[C@H](O)[C@@H](C)/C=C(\C)[C@H](OC(N)=O)[C@@H](OC)/C=C\C=C(/C)C(=O)NC(=CC1=O)C2=O [17-AAG] + CC(=O)Nc1cccc(-n2c(=O)n(C3CC3)c(=O)c3c(Nc4ccc(I)cc4F)n(C)c(=O)c(C)c32)c1 [Trametinib] (partner 0.02 µM)
In short: (§1)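 Relative viability is defined as nuclei in treated wells over nuclei in vehicle wells. Duplicate plates were run and medians reported. Lung cancer cell lines in 1536-well plates were dosed by pin tool one day after seeding, with one drug or with a fixed anchor-drug dose plus five library-drug doses (not always all listed) in √10 steps, and nuclei were counted after 5 days.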

[2] = compound: C=CCNC1=C2C[C@@H](C)C[C@H](OC)[C@H](O)[C@@H](C)/C=C(\C)[C@H](OC(N)=O)[C@@H](OC)/C=C\C=C(/C)C(=O)NC(=CC1=O)C2=O [17-AAG] + COc1cccc2cc(-c3nc([C@H]4CC[C@H](C(=O)O)CC4)n4ncnc(N)c34)[nH]c12 [OSI-027] (partner 0.5 µM)
In short: as §1

[3] = compound: C=CCNC1=C2C[C@@H](C)C[C@H](OC)[C@H](O)[C@@H](C)/C=C(\C)[C@H](OC(N)=O)[C@@H](OC)/C=C\C=C(/C)C(=O)NC(=CC1=O)C2=O [17-AAG] + CS(=O)(=O)CCNCc1ccc(-c2ccc3ncnc(Nc4ccc(OCc5cccc(F)c5)c(Cl)c4)c3c2)o1 [Lapatinib] (partner 2 µM)
In short: as §1

[4] = compound: C=CCNC1=C2C[C@@H](C)C[C@H](OC)[C@H](O)[C@@H](C)/C=C(\C)[C@H](OC(N)=O)[C@@H](OC)/C=C\C=C(/C)C(=O)NC(=CC1=O)C2=O [17-AAG] + C[C@]1(O)C[C@@H](c2nc(-c3ccc4ccc(-c5ccccc5)nc4c3)c3c(N)nccn32)C1 [Linsitinib] (partner 1 µM)
In short: as §1

Cell Line | relative viability ([1]; first compound 0.00128 µM) | relative viability ([1]; first compound 0.004048 µM) | relative viability ([1]; first compound 0.0128 µM) | relative viability ([1]; first compound 0.04048 µM) | relative viability ([1]; first compound 0.128 µM) | relative viability ([2]; first compound 0.00128 µM) | relative viability ([2]; first compound 0.004048 µM) | relative viability ([2]; first compound 0.0128 µM) | relative viability ([2]; first compound 0.04048 µM) | relative viability ([2]; first compound 0.128 µM) | relative viability ([3]; first compound 0.00128 µM) | relative viability ([3]; first compound 0.004048 µM) | relative viability ([3]; first compound 0.0128 µM) | relative viability ([3]; first compound 0.04048 µM) | relative viability ([3]; first compound 0.128 µM) | relative viability ([4]; first compound 0.00128 µM) | relative viability ([4]; first compound 0.004048 µM) | relative viability ([4]; first compound 0.0128 µM) | relative viability ([4]; first compound 0.04048 µM) | relative viability ([4]; first compound 0.128 µM)
ChaGo-K-1 | 0.918 | 0.873 | 0.767 | 0.857 | 0.735 | 0.514 | 0.71 | 0.51 | 0.24 | 0.16 | – | – | – | – | – | – | – | – | – | –
EBC-1 | – | – | – | – | – | – | – | – | – | – | 0.217 | 0.234 | 0.192 | 0.2 | 0.2 | 0.851 | 0.579 | 0.162 | 0.139 | 0.12
EKVX | 0.341 | 0.306 | 0.289 | 0.127 | 0.117 | 0.77 | 0.649 | 0.746 | 0.177 | 0.152 | 0.223 | 0.218 | 0.197 | 0.0769 | 0.12 | 1.12 | 1.08 | 0.873 | 0.252 | 0.122
EMC-BAC-2 | 0.946 | 0.821 | 0.765 | 0.335 | 0.235 | 0.464 | 0.486 | 0.438 | 0.3 | 0.216 | 0.948 | 0.948 | 0.907 | 0.777 | 0.16 | 0.875 | 0.772 | 0.837 | 0.803 | 0.265
EPLC-272H | 0.278 | 0.268 | 0.229 | 0.169 | 0.135 | 0.275 | 0.277 | 0.247 | 0.145 | 0.112 | 1.04 | 1.02 | 0.929 | 0.425 | 0.153 | 1.37 | 1.12 | 1.21 | 0.928 | 0.324
H3255 | 0.597 | 0.556 | 0.544 | 0.31 | 0.21 | 0.569 | 0.576 | 0.49 | 0.274 | 0.268 | 0.296 | 0.338 | 0.275 | 0.235 | 0.175 | 0.953 | 1.01 | 0.798 | 0.201 | 0.188
HARA | 0.893 | 0.598 | 0.81 | 0.66 | 0.149 | 0.503 | 0.56 | 0.489 | 0.151 | 0.0613 | 0.694 | 0.811 | 0.692 | 0.831 | 0.325 | 0.947 | 1.01 | 0.909 | 0.442 | 0.754
HCC-15 | 0.415 | 0.416 | 0.286 | 0.214 | 0.13 | 0.628 | 0.54 | 0.179 | 0.107 | 0.106 | 0.795 | 0.625 | 0.351 | 0.225 | 0.106 | 0.879 | 0.894 | 0.613 | 0.387 | 0.213
HCC-44 | 1.04 | 1.01 | 0.988 | 1.05 | 0.804 | 0.54 | 0.429 | 0.229 | 0.141 | 0.116 | 1.06 | 0.986 | 0.998 | 0.287 | 0.125 | 0.643 | 0.709 | 0.686 | 0.662 | 0.119
